Data from the NIST ThermoML archive (doi:10.1021/je050070r).

Conditions: Liquid

O=C(O)C(F)(F)C(F)(F)C(F)(F)C(F)(F)C(F)(F)C(F)(F)C(F)(F)C(F)(F)F [perfluorononanoic acid]
Conditions	vapor or sublimation pressure [kPa]
372.78 K	1.12
382.69 K	2.02
390.81 K	3.12
401.7 K	5.54
412.92 K	9.33
423.86 K	15.19
432.85 K	22.77
446.11 K	37.25
461.08 K	62.07
476.13 K	99.97
476.27 K	99.97

O=C(O)C(F)(F)C(F)(F)C(F)(F)C(F)(F)C(F)(F)C(F)(F)C(F)(F)C(F)(F)C(F)(F)F [nonadecafluorodecanoic acid]
Conditions	vapor or sublimation pressure [kPa]
402.71 K	3.129
406.24 K	3.749
414.08 K	5.541
425.35 K	9.331
436.83 K	15.18
447.12 K	22.77
460.65 K	37.23
476.08 K	62.05
492.03 K	99.97

O=C(O)C(F)(F)C(F)(F)C(F)(F)C(F)(F)C(F)(F)C(F)(F)C(F)(F)F [pentadecafluorooctanoic acid]
Conditions	vapor or sublimation pressure [kPa]
332.4 K	0.128
335.52 K	0.168
339.75 K	0.231
345.75 K	0.361
352.15 K	0.581
359.75 K	0.96
368.05 K	1.602
377.09 K	2.69
387.15 K	4.591
397.55 K	7.691
409.26 K	13.07
421.75 K	22.16
435.35 K	37.25
450.95 K	63.98
463.95 K	96.5

O=C(O)C(F)(F)C(F)(F)C(F)(F)C(F)(F)C(F)(F)C(F)(F)C(F)(F)C(F)(F)C(F)(F)C(F)(F)F [perfluoroundecanoic acid]
Conditions	vapor or sublimation pressure [kPa]
385.19 K	0.616
393.78 K	1.062
402.69 K	1.752
412.29 K	2.785
412.41 K	2.789
422.37 K	4.513
431.47 K	6.925
445.17 K	12.44
459.92 K	20.7
473.83 K	34.49
475.24 K	34.48
491.44 K	58.6
491.79 K	58.6
509.83 K	96.51
510.8 K	99.97

O=C(O)C(F)(F)C(F)(F)C(F)(F)C(F)(F)C(F)(F)C(F)(F)C(F)(F)C(F)(F)C(F)(F)C(F)(F)C(F)(F)F [dodecanoic acid, tricosafluoro-]
Conditions	vapor or sublimation pressure [kPa]
400.73 K	0.856
413.72 K	1.819
422.1 K	2.854
422.75 K	2.985
433.27 K	4.848
445.63 K	8.29
457.94 K	13.81
470.59 K	22.07
483.66 K	34.48
498.85 K	55.15
520.51 K	99.96
